{"source": "patent US20260124213A1", "about": "“STAPHYLOCOCCUS AUREUS PBP4 INHIBITORS AND METHOD OF USE” (UNIVERSITY OF ROCHESTER, priority 2022, published 2026)", "system": "HEPG2 cells", "test": "MTT cell viability / mammalian cytotoxicity", "type": "cell-based, human", "settings": "100 μM; HEPG2 approx. 2.5 × 10^5 cells/mL; Ex. 3 series", "description": "Eukaryotic Toxicity Testing. Two rounds of eukaryotic toxicity testing were performed. Initially hits of interest were evaluated for antifungal activity in high throughput manner. To do so, 10^5 CFU of Saccharomyces cerevisiae YSB1001 cells (10 μL) were inoculated into individual wells of a microtiter plate containing yeast peptone dextrose media (88 μL) and 50 μM of each hit (2 μL). […] More extensive mammalian cytotoxicity testing was performed on the indicated highest priority hits of interest following International Organization for Standardization guidelines. Briefly, human liver epithelial cells (HEPG2) were cultured in Dulbecco's modified Eagle medium (DMEM; Fisher Scientific®) supplemented with 10% heat inactivated fetal bovine serum (FBS; Corning Life Sciences, Corning, NY) and 1% penicillin and streptomycin. Cells were incubated at 37° C. with 5% CO2 in Nunc™ tissue culture flasks (Roskilde, Denmark) until reaching 70% confluency. Cells were removed with 0.25% trypsin (Fisher Scientific®), resuspended in fresh medium, and used to seed approximately 2.5×10^5 mL^−1 cells into individual wells of a 96 well tissue culture microplate (Nunc™) containing 200 μL of fresh medium, and incubated for 24 hours. […] Mixtures were incubated for 20-24 h at 37° C. with 5% CO2, the media was removed and replaced with 100 μL fresh media and 10 μL of 12 mM (3-(4,5-dimethylthiazol-2-yl)-2,5-diphenyltetrazolium bromide (MTT) reagent (Cyquant™ Cell Viability kit; Invitrogen™, Carlsbad, CA) was added to each well. Cells were incubated at 37° C. with 5% CO2 for 2-4 hour, 85 μL of media was removed and the remainder was mixed with 50 μL DMSO and incubated for an additional 10 minutes at 37° C. in the dark. Using a SpectraMax® M5 microplate reader, cell viability was recorded as absorbance at OD540 nm. All compounds were tested in triplicate and cell viability was expressed as a percent viability of treated cells in comparison to mock treated cells. […]", "data": [{"compound": "O=C(Nc1ccc2[nH]c(-c3cccs3)nc2c1)c1ccco1", "note": "[Compound 1 (7729837)]", "values": [{"measurement": "Toxicity with HEPG2 Cells (cell viability)", "value": "95±16.8", "unit": "%"}]}]}
